Data from patent US20080305186A1, “Method and Composition for the Treatment of Cardiac Hypertrophy” (BOARD OF REGENTS, THE UNIVERSITY OF TEXAS SYSTEM, priority 2007, published 2008).

System: cardiac gene expression
Test: Microarray analysis of cardiac gene expression (GeneChip Mouse Genome 430 2.0)
Assay type: in vivo, mice
Method: Microarray Sample Preparation and Analysis. Animal hearts were rapidly removed, and the atria and right ventricles were cut and immediately plunged into TRIzol Reagent (Life Technologies). Total RNA was isolated following the manufacturer's instructions, purified by phenol-chloroform extraction and then ethanol precipitation, and 20 μg further processed for microarray analysis. Briefly, cDNA synthesis, in vitro transcription, and labeling and fragmentation to produce the oligonucleotide probes were performed as instructed by the GeneChip manufacturer (Affymetrix). The probes were first hybridized to a test array (Affymetrix) and then to the GeneChip Mouse Genome 430 2.0 Array, using the GeneChip Hybridization Oven 640. The chips were washed in a GeneChip Fluidics Station 450 (Affymetrix), and the results were visualized with a GeneChip G7 scanner (Affymetrix). RMA normalization, pairwise comparisons, Student's t test and Benjamini and Hochberg correction were subsequently performed using GeneSifter (VizX Labs, Seattle, Wash.) and Spotfire DecisionSite 8.3 (Spotfire, Inc., Somerville, Mass.).
Effects on Gene Expression Profile. […] One mouse heart was used for each array, and was performed in triplicate, generating a total of 12 arrays. GeneSifter was used to perform RMA normalization, pairwise comparisons of averaged signal intensity values, and Student's t-test with Benjamini and Hochberg correction, and Spotfire was used to perform pairwise comparisons. […] Additionally, genes that were altered between any two N or cardiac hypertrophy samples were removed, as these alterations most likely represented normal variations between mice.

[1] = mouse heart, vs isoproterenol only (CH), CH vs normal −1.7
[2] = mouse heart, vs isoproterenol only (CH), CH vs normal −1.8
[3] = mouse heart, vs isoproterenol only (CH), CH vs normal −1.9
[4] = mouse heart, vs isoproterenol only (CH), CH vs normal −2.0
[5] = mouse heart, vs isoproterenol only (CH), CH vs normal −2.1
[6] = mouse heart, vs isoproterenol only (CH), CH vs normal −2.4
[7] = mouse heart, vs isoproterenol only (CH), CH vs normal −2.5
[8] = mouse heart, vs isoproterenol only (CH), CH vs normal −2.6
[9] = mouse heart, vs isoproterenol only (CH), CH vs normal −2.7
[10] = mouse heart, vs isoproterenol only (CH), CH vs normal −2.8
[11] = mouse heart, vs isoproterenol only (CH), CH vs normal −2.9
[12] = mouse heart, vs isoproterenol only (CH), CH vs normal −3.0
[13] = mouse heart, vs isoproterenol only (CH), CH vs normal −3.2
[14] = mouse heart, vs isoproterenol only (CH), CH vs normal −3.3
[15] = mouse heart, vs isoproterenol only (CH), CH vs normal −3.9

In the case of `C[C@H]1c2cccc(O)c2C(=O)C2=C(O)[C@]3(O)C(=O)C(C(N)=O)=C(O)[C@@H](N(C)C)[C@@H]3[C@@H](O)[C@@H]21` [doxycycline], the “FC EphrinB3 (Efnb3), BQ175608” value [1] is reported as 1.6 fold, the “FC Nuclear factor IB (Nfib), BB092799” value [1] is reported as 4.0 fold and the “FC Preimplantation protein 4 (Prei4), BB550273” value [1] is reported as 3.6 fold. The “FC Triple futional domain (PTPRF interacting) (Trio), BB794936” value [1] was 3.0 fold, the “FC cDNA, AK020162” value [1] was 1.7 fold and the “FC ATPase, Na+/K+ transporting, alpha 1 polypeptide (Atp1a1), BC025618” value (mouse heart, vs isoproterenol only (CH), CH vs normal −1.7, first BC025618 line) was 2.4 fold. The “FC EST, BB126796” value [2] was 6.5 fold, the “FC EST, BB451134” value [2] was 7.5 fold and the “FC Metastasis suppressor 1 (Mtss1), BB326749” value [2] was 2.0 fold. For the same molecule, the “FC Tetratricopeptide repeat domain (Ttc3), BB833716” value [2] was 3.0 fold, the “FC EST, BM941198” value [3] was 3.2 fold and the “FC Jumonji, AT rich interactive domain 1A (Rbp2 like) (Jarid1a), BB376407” value [3] was 2.6 fold. The “FC cDNA, BB006809” value [3] was 2.1 fold, the “FC Guanine nucleotide binding protein, alpha 12 (Gna12), NM_010302” value [4] was 3.0 fold and the “FC Zi finger and BTB domain containing 20 (Zbtb20), BB175650” value [4] was 2.3 fold. For the same molecule, the “FC cDNA, BC002200” value [4] was 4.8 fold, the “FC ATPase, Na+/K+ transporting, alpha 1 polypeptide (Atp1a1), BC025618” value (mouse heart, vs isoproterenol only (CH), CH vs normal −2.0, second BC025618 line) was 2.7 fold and the “FC Adenylate kinase 4 (Ak4), NM_009647” value [5] was 2.2 fold. For the same molecule, the “FC Beta-tubulin gene M-beta-2 (Tubb2a), M28739” value [5] was 1.7 fold, the “FC C1q and tumor necrosis factor related protein 4 (C1qtnf4), NM_026161” value [5] was 1.5 fold and the “FC Cold inducible RNA binding protein (Cirbp), NM_007705” value [5] was 1.7 fold. For the same molecule, the “FC Coronin, actin binding protein 1C (Coro1c), NM_011779” value [5] was 2.1 fold, the “FC Adrenergic receptor, alpha 1b (Adra1b), NM_007416” value (mouse heart, vs isoproterenol only (CH), CH vs normal −2.3) was 1.8 fold and the “FC CXXC finger 5 (Cxxc5), AK015150” value [6] was 2.1 fold. The “FC DNA segment, Chr 9, ERATO Doi 256, expressed, BG066667” value [6] was 3.3 fold, the “FC Insulin degrading enzyme (Ide), AK014703” value [6] was 2.1 fold and the “FC Sno, strawbeny notch homolog 1 (Sno1), BE947961” value [6] was 3.0 fold. For the same molecule, the “FC cDNA, BB748887” value [6] was 3.9 fold, the “FC B-cell translocation gene 2, anti-proliferative (Btg2), BG965405” value [7] was 2.2 fold and the “FC cDNA, BC026793” value [7] was 2.5 fold. For the same molecule, the “FC Cbp/p300-interacting transactivator, with Glu/Asp-rich carboxy-terminal domain, 4 (Cited4), BC025116” value [8] was 2.0 fold, the “FC Desmoglein 2 (Dsg2), AB072269” value [8] was 3.0 fold and the “FC Heat shock protein, 84 kDa 1 (Hsp90ab1), BI154147” value [8] was 8.7 fold. For the same molecule, the “FC Myocyte enhaer factor 2C (Mef2c), AI595932” value [8] was 4.5 fold, the “FC Restin-like 2 (Rsnl2), AK018895” value [8] was 3.8 fold and the “FC Jumonji domain containing 3 (Jmjd3), AW763746” value [9] was 5.0 fold. The “FC cDNA (similar to integrin beta 1 binding protein 3), AK009897” value [9] was 4.0 fold, the “FC ADP-ribosylation factor 2 (Arf2), AV023312” value [10] was 2.5 fold and the “FC Karyopherin (importin) beta 1 (Kpnb1), AW544889” value [10] was 3.6 fold. The “FC PPAR gamma coactivator-1beta protein (Ppargc1b), NM_133249” value [11] was 4.4 fold, the “FC SET and MYND domain containing 1 (Smyd1), NM_009762” value [11] was 2.7 fold and the “FC cDNA, AK013448” value [11] was 2.6 fold. The “FC Dual specificity phosphatase 8 (Dusp8), NM_008748” value [12] was 2.8 fold, the “FC GATA binding protein 4 (Gata4), NM_008092” value [12] was 2.7 fold and the “FC ATP synthase, H+ transporting, mitochondrial F1 complex, alpha subunit, isoform 1 (Atp5a1), C78762” value (mouse heart, vs isoproterenol only (CH), CH vs normal −3.1) was 1.7 fold. The “FC Actin, beta, cytoplasmic (Actb), AW537707” value [13] was 4.9 fold, the “FC Methionine sulfoxide reductase B3 (Msrb3), BB277041” value [13] was 7.2 fold and the “FC Cyclin D1 (Ccnd1), BB538325” value [14] was 2.7 fold. The “FC Thymoma viral proto-oogene 1 (Akt1), M94335” value [14] was 2.1 fold, the “FC cDNA, BB283973” value [14] was 4.1 fold and the “FC cDNA, BB534971” value (mouse heart, vs isoproterenol only (CH), CH vs normal −3.5) was 2.9 fold. For the same molecule, the “FC cDNA, BB026304” value (mouse heart, vs isoproterenol only (CH), CH vs normal −3.8) was 4.1 fold, the “FC Connexin 43 (alpha-1 gap jution) (Gja1), M63801” value [15] was 3.6 fold and the “FC Kinesin-like protein (Kif1b), D17577” value [15] was 4.8 fold. The “FC Kv channel-interacting protein 2a (Kcnip2), AF439339” value (mouse heart, vs isoproterenol only (CH), CH vs normal −4.4) was 3.7 fold, the “FC Potassium voltage-gated channel, Isk-related subfamily, member 1 (Kcne1), NM_008424” value (mouse heart, vs isoproterenol only (CH), CH vs normal −4.6) was 1.5 fold and the “FC Tumor rejection antigen gp96 (Tra1); heat shock protein 90 kDa beta (Grp94), member 1 (Hsp90b1), BE995678” value (mouse heart, vs isoproterenol only (CH), CH vs normal −9.4) was 8.0 fold. For the same molecule, the “FC Cadherin 13 (Cdh13), AK016527” value (mouse heart, vs isoproterenol only (CH), CH vs normal −10.0) was 9.8 fold, the “FC cDNA (D site albumin promoter binding protein, Dbp), BB550183” value (mouse heart, vs isoproterenol only (CH), CH vs normal −11.5) was 12.0 fold and the “number of the 472 cardiac hypertrophy-specific Combo-altered genes also altered by the drug alone” value (statistical parameters lifted (average fold-changes irrespective of statistical measures)) was 453.
